Test results reported in patent publication US7262173B2, “Chemosensitizing with liposomes containing oligonucleotides” (Georgetown University, priority 1997, dated 2007).

Experiments:
[1] = Tissue distribution of raf ODN after i.v. injection; assay type: in vivo, Balb/c nu/nu mice; settings: 30 mg/kg i.v., free ODN; data not shown
Description: FIG. 4: Tissue distribution profiles of LE-ATG-AS raf ODN (SEQ ID NO:1).
Male Balb/c nu/nu mice (Charles River, Raleigh, N.C., USA; 10–12 weeks old) were maintained in the Research Resources Facility of the Georgetown University according to accredited procedure, and fed purina chow and water ad libitum. […] At 5 min, 15 min, 30 min, 1 h, 2 h, 4 h, 8 h, 24 h and 48 h after injection, one animal in each group was bled from the retro-orbital sinus into heparinized tubes under anesthesia, and killed by cervical dislocation.
The extracts were loaded on to 20% polyacrylamide/3 M urea gels and electrophoresed in TBE buffer. […] The radiolabeled probe was generated by 5′-end-labeling of ATG-S′ raf ODN (SEQ ID NO:3) with γ^32-P-ATP using T4 polynucleotide kinase and purification over Chroma Spin-10 columns (Clontech, Palo Alto, Calif., and USA). […] The autoradiographs were scanned using a computer program (ImageQuant software, Molecular Dynamics, Sunnyvale, Calif., and USA), and the amounts of ATG-AS raf ODN (SEQ ID NO:1) in various samples were calculated by comparison to standards.

SQ-20B cells [2] = assay: Intracellular raf ODN stability assay (PC/CHOL/DDAB liposomes); assay type: cell-based, human; settings: 10 μM for 4 hours, then 20% FBS medium up to 24 hours; denaturing gel
Description: FIG. 2: (a) Time-course of cellular uptake of LE-ATG-AS raf ODN (SEQ ID NO:1), SQ-20B cells were incubated with ^32P-5 end labeled and an excess of unlabeled LE-ATG-AS raf ODN (SEQ ID NO:1) (10 μM) for indicated times as described in the experimental procedures. Results are mean±s.d from two independent experiments each performed in duplicate, (b) Intracellular stability of LE-ATG-AS raf ODN (SEQ ID NO:1). Cells were incubated with ^32P-end labeled and an excess of unlabeled LE-ATG-AS raf ODN (SEQ ID NO:1) (10 μM in 1% FBS containing medium for […], washed with PBS and then incubations continued in 20% FBS containing medium for 0 hour (lane 2), 2 hours (lane 3), 8 hours (lane 4), 12 hours (lane 5), and 24 hours (lane 6). Cells were lysed and ODNs in various samples were analyzed by denaturing gel electrophoresis as explained in the experimental procedures. Lane 2, radiolabeled control LE-ATG-AS raf ODN (SEQ ID NO: 1); 15-mer, ATG-AS raf ODN (SEQ ID NO:1) migrations of xylene cyanol (XC) and bromophenol blue (BP) are indicated.
For ODN stability studies, cells were seeded and incubated with 10 μM ^32P-labeled LE-ATG-AS raf ODN (SEQ ID NO:1) or ATG-AS raf ODN (SEQ ID NO:1) (1×10^6 c.p.m./ml) for 4 h at 37° C. in 1% FBS containing medium. […] ODNs were extracted with phenol: chloroform, and the aqueous fractions were collected and aliquots were analyzed by scintillation counting. […]

SQ-20B cells [3] = assay: Radiation survival dose response assay; assay type: cell-based, human; settings: free ODN 100 μm
Description: The appropriate numbers of SQ-20B cells were seeded in duplicate T-25 tissue culture flasks (Corning, N.Y., USA) in medium containing 20% FBS, and allowed to attach for 8 h at 37° C. […] Irradiations were performed using ^137Cs gamma irradiator (JL Shepard MARK I irradiator) and a dose rate of 114 cGy/min. The cells were irradiated with total doses of 1 Gy, 3 Gy, 5 Gy and 13 Gy, followed by incubation for 2 h. The medium in all flasks was then replaced with 20% FBS containing medium and incubations continued for 7–10 days. Surviving colonies were fixed and stained with 0.5% methylene blue and 0.13% carbol fuchsin in methanol. Colonies containing 50 or more cells were scored and data were fitted to the computer-generated single-hit multitarget and linear-quadratic models of radiation survival response.
SQ-20B cells treated with liposome-encapsulated ATG-AS raf ODN (SEQ ID NO:1) are radiosensitive. Radiation survival dose responses of SQ-20B cells exposed to LE-ATG-AS raf ODN (SEQ ID NO:1), LE-ATG-S raf ODN (SEQ ID NO:3), or blank liposomes are presented in Table 1. […] The single-hit, multitarget (target model) and the linear quadratic model (LQ) are most commonly used to analyze cellular radiation survival. The target model is based on the parameters D0 and fl, where D0 is the inverse of the terminal slope of the survival curve and fl is the extrapolation of this slope to the ordinate. […]

5′-GTG-CTCCATTGATGC-3′ (antisense GTGCTCCATTGATGC; DNA, linkages s1 o12 s1 (s phosphorothioate, o phosphodiester), methylation of C not given here) [ATG-AS raf ODN, antisense ODN to translation initiation site of human c-raf-1 cDNA; one terminal base linkage at each end phosphorothioate]
only time at which intact ODN seen in various organs [1]: 5 min | intracellular integrity of ODN (SQ-20B cells [2]): no detectable ODN at all time-points | dose modifying factor (DMF) (SQ-20B cells [3]): approximately 1.4
